Consider 3 molecules from US5045558A, “N-substituted imidazoles and their use in pharmaceutical agents” (Schering Aktiengesellschaft, priority 1988, dated 1991).

Test [1] has as its target T1, aromatase (Homo sapiens, UniProt P11511).
T1 construct: microsomes obtained from human placenta; from tissue; host or cells: human placenta, microsomes
T1 sequence (P11511 1-503): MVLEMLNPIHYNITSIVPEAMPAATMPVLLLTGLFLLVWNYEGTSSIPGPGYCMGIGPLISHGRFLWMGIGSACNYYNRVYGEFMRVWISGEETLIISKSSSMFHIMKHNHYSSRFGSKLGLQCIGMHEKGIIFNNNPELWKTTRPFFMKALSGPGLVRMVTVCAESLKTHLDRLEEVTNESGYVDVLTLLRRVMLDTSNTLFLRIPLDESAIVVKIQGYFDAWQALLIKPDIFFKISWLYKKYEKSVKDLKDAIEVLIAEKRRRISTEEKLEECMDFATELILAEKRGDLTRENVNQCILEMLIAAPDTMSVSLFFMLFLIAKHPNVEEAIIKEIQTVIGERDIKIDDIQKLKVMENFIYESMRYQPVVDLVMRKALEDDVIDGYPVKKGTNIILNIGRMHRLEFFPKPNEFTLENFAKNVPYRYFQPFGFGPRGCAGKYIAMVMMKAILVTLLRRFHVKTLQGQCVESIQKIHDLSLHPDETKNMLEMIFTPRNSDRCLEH
Put plainly: Test A: Determination of Aromatase Activity (release of tritium-labeled water, human placenta microsomes). Particulars: for Ki: Test A, human placenta microsomes, Dixon method; for inhibition of aromatase (in words): in comparison with compound 1 / compounds known so far. The class given is biochemical. Here is the method:
Determination of Aromatase Activity
The capabilities of compounds to inhibit the enzyme system of aromatase is tested on microsomes obtained from human placenta. The release of tritium-labeled water (^3 H2 O), which is released as reaction product in the aromatizing of (1beta-^3 H) androstrenedione to estrogen, is measured according to the methods of Thompson and Siiteri (J. Biol. Chem. Z49, 5364-72 (1974)). The corresponding inhibition values (K1, aromatase) are determined according to the method of Dixon (Biochem. J. 94, 760 (1965) by graphic determination of the application of 1/v against the inhibition concentration.

For test [2], the target named is T2, 11beta-hydroxylase (Bos taurus, UniProt P15150).
T2 construct: mitochondria, obtained from bovine suprarenals; from tissue; host or cells: bovine suprarenals (adrenal glands), mitochondria
T2 sequence (P15150 25-503): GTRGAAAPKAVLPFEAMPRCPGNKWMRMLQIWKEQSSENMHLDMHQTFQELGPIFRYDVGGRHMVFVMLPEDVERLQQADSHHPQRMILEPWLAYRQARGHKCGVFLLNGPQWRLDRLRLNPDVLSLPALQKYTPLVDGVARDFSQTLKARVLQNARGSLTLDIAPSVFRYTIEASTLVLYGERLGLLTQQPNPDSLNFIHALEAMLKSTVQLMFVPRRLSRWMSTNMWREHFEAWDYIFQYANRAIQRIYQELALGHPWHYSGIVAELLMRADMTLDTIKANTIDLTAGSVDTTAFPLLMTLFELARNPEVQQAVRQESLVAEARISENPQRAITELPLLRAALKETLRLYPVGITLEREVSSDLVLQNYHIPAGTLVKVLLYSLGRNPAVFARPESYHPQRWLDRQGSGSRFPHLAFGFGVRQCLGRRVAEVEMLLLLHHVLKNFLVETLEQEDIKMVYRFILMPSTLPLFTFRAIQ
Kind of test: Test B: Determination of 11-beta Hydroxylase Activity (mitochondria from bovine suprarenals). The class given is biochemical. Particulars: for IC50: Test B, bovine suprarenal mitochondria, substrate concentration corresponds to apparent Km; for selectivity of aromatase inhibition (in words): aromatase vs other enzyme systems (11beta-hydroxylase), in comparison with compound 1 / compounds known so far. Here is the method:
Determination of 11-beta Hydroxylase Activity
The 11beta-hydroxylase activity is measured on mitochondria, obtained from bovine suprarenals. The reaction of [1,2-^3 H]-17alpha-hydroxy-11-deoxycorticosterone in cortisol is determined by thin-film chromatography of the resulting reaction products according to a method of Mitani et al (J. Biol. Chem 250, 8010-15 (1975)). The concentration of the examined compound is determined, in which the reaction is inhibited by 50%, and the substrate concentration corresponds to the apparent Km value.

As a reminder, the Ki is the equilibrium dissociation constant of an inhibitor or competing ligand from its target. What is called IC50 is the concentration at which inhibition is half-maximal. With `CCCC(c1ccc(C#N)cc1)n1ccnc1` (stereo not shown) [Compound 1, 4-[1-(1-imidazolyl)-butyl]-benzonitrile, reference compound], the affinity in test [1], expressed as Ki, was 1.1 nM. In test [2], the IC50 came out at 94 nM.

As to `CCCCCC(=O)c1ccc(C(CCC)n2ccnc2)cc1` (stereo not shown) [Compound 2, [4-[1-(1-Imidazolyl)-butyl]-phenyl]-pentylketone], in test [1], the Ki is 0.42 nM and the “inhibition of aromatase (in words)” value was “stronger inhibition actions of aromatase than compound 1”. Moreover, in test [2], the IC50 worked out at 1500 nM and the “selectivity of aromatase inhibition (in words)” value is “more selective effectiveness”.

In the case of `CCCCOC(=O)c1ccc(C(CCC)n2ccnc2)cc1` (stereo not shown) [Compound 3, 4-[1-(1-imidazolyl)-butyl]-benzoic acid butyl ester], in test [1], the Ki was 0.87 nM and the “inhibition of aromatase (in words)” value is recorded as “stronger inhibition actions of aromatase than compound 1”. In test [2], the IC50 was 750 nM and the “selectivity of aromatase inhibition (in words)” value is “more selective effectiveness”.
